Experimental data reported in patent publication US4272437A, “Antibacterial agents, and 4-thio azetidinone intermediates” (priority 1979, dated 1981).
Converted amounts (≈) assume the structure as drawn. Read-outs that look alike come from different tables or passages of the source.

Columns and labels:
[1] = test system: Proteus vulgaris A21559; test: MIC, tube dilution, Proteus vulgaris A21559; assay type: cell-based; settings: Proteus vulgaris
From the text: (§1) Representative compounds of the present invention were subjected to in vitro antibiotic screening against a variety of microorganisms.

[2] = test system: Pr. mirabilis A-9900; test: MIC, tube dilution, Proteus mirabilis A9900; assay type: cell-based; settings: Proteus mirabilis, A9900, Proteus mirabilis A9900; overnight 37° C.; read-out: Minimum Inhibitory Concentration (M.I.C.)
From the text: as §1

[3] = test system: Str. pyogenes A-9604; test: MIC, tube dilution, Streptococcus pyogenes A9604; assay type: cell-based; settings: Streptococcus pyogenes, A9604, Str. pyogenes A9604; overnight 37° C., Nutrient Broth; read-out: Minimum Inhibitory Concentration (M.I.C.)
From the text: as §1

[4] = test system: Staph. aureus (Pen-Res) A-9606; test: MIC, tube dilution, Staphylococcus aureus A9606 (Pen-Res); assay type: cell-based; settings: Staphylococcus aureus, overnight 37° C.
From the text: as §1

[5] = test system: Ps. aeruginosa A-21213; test: MIC, tube dilution, Pseudomonas aeruginosa A21213; assay type: cell-based; settings: overnight 37° C., read-out: Minimum Inhibitory Concentration (M.I.C.)
From the text: as §1

[6] = test system: K. pneumoniae A-15130; test: MIC, tube dilution, Klebsiella pneumoniae A15130; assay type: cell-based; settings: Klebsiella pneumoniae, A15130, K. pneumoniae A15130; overnight 37° C.; read-out: Minimum Inhibitory Concentration (M.I.C.)
From the text: as §1

[7] = test system: Ent. cloacae A-9659; test: MIC, tube dilution, Enterobacter cloacae A9659; assay type: cell-based; settings: Enterobacter cloacae, A9659, Enterobacter cloacae A9659; overnight 37° C.; read-out: Minimum Inhibitory Concentration (M.I.C.)
From the text: as §1

[8] = test system: Pr. morganii A-15153; test: MIC, tube dilution, Proteus morganii A15153; assay type: cell-based; settings: Morganella morganii, A15153, Proteus morganii A15153; overnight 37° C.; read-out: Minimum Inhibitory Concentration (M.I.C.)
From the text: as §1

[9] = test system: Proteus rettgeri A21203; test: MIC, tube dilution, Proteus rettgeri A21203; assay type: cell-based; settings: Providencia rettgeri, overnight 37° C., read-out: Minimum Inhibitory Concentration (M.I.C.)
From the text: as §1

[10] = test system: Staph. aureus A-9537; test: MIC, tube dilution, Staphylococcus aureus A9537; assay type: cell-based; settings: Staphylococcus aureus, A9537, Staph. aureus A9537; overnight 37° C., Nutrient Broth; read-out: Minimum Inhibitory Concentration (M.I.C.)
From the text: as §1

[11] = test system: E. coli A-15119; test: MIC, tube dilution, Escherichia coli A15119; assay type: cell-based; settings: Escherichia coli, A15119, E. coli A15119; overnight 37° C.; read-out: Minimum Inhibitory Concentration (M.I.C.)
From the text: as §1

[12] = test system: Staph. aureus A-9537 and 50% serum; test: MIC, tube dilution, Staph. aureus A9537 + 50% serum; assay type: cell-based, Staphylococcus aureus; settings: Staphylococcus aureus, overnight 37° C., read-out: Minimum Inhibitory Concentration (M.I.C.)
From the text: as §1

[13] = test system: Ser. marcescens A-20019; test: MIC, tube dilution, Serratia marcescens A20019; assay type: cell-based; settings: Serratia marcescens, A20019, Serratia marcescens A20019; overnight 37° C.; read-out: Minimum Inhibitory Concentration (M.I.C.)
From the text: as §1

[14] = test system: E. coli A-20341-1; test: MIC, tube dilution, Escherichia coli A20341-1; assay type: cell-based
From the text: as §1

[15] = test system: Ent. cloacae A-9656; test: MIC, tube dilution, Enterobacter cloacae A9656; assay type: cell-based; settings: overnight 37° C., read-out: Minimum Inhibitory Concentration (M.I.C.)
From the text: as §1

[16] = test system: Staph. aureus (Meth-Res) A-15097; test: MIC, tube dilution, Staphylococcus aureus A15097 (Meth-Res); assay type: cell-based; settings: Staphylococcus aureus, overnight 37° C.
From the text: as §1

[17] = test system: Ps. aeruginosa A-9843A; test: MIC, tube dilution, Pseudomonas aeruginosa A9843A; assay type: cell-based; settings: Pseudomonas aeruginosa, A9843A, read-out: Minimum Inhibitory Concentration (M.I.C.), Pseudomonas aeruginosa A9843A; overnight 37° C.
From the text: as §1

[18] = test system: Klebsiella species A20468; test: MIC, tube dilution, Klebsiella species A20468; assay type: cell-based; settings: Klebsiella species (K. pneumoniae) A20468; overnight 37° C.; read-out: Minimum Inhibitory Concentration (M.I.C.)
From the text: as §1

[19] = test system: Str. pneumoniae A-9585; test: MIC, tube dilution, Streptococcus pneumoniae A9585; assay type: cell-based; settings: Streptococcus pneumoniae, A9585, Str. pneumoniae A9585; overnight 37° C., Nutrient Broth; read-out: Minimum Inhibitory Concentration (M.I.C.)
From the text: as §1

[20] = test system: Str. faecalis A-20688; test: MIC, tube dilution, Streptococcus faecalis A20688; assay type: cell-based; settings: Enterococcus faecalis, A20688, Str. faecalis A20688; overnight 37° C.; read-out: Minimum Inhibitory Concentration (M.I.C.)
From the text: as §1

[21] = A21559, Proteus vulgaris A21559, overnight 37° C., read-out: Minimum Inhibitory Concentration (M.I.C.)
[22] = Staph. aureus A9606 (Pen-Res), read-out: Minimum Inhibitory Concentration (M.I.C.)
[23] = Pseudomonas aeruginosa, A21213, Pseudomonas aeruginosa A21213
[24] = A21203, Proteus rettgeri A21203
[25] = Escherichia coli, A203411, E. coli A20341-1; overnight 37° C.; read-out: Minimum Inhibitory Concentration (M.I.C.)
[26] = Enterobacter cloacae, A9656, Enterobacter cloacae A9656
[27] = Staph. aureus A15097 (Meth-Res), read-out: Minimum Inhibitory Concentration (M.I.C.)

In the case of `CC1=C(C(=O)O)N2C(=O)[C@H]([C@H](C)O)[C@H]2S1` (relative stereo) [Example 59, (1'S,5R,6S and 1'R,5S,6R) 6-(1'-Hydroxy-1'-ethyl)-2-methyl penem-3-carboxylic acid (isomer C)], the MIC ([1]; A21559, read-out: Minimum Inhibitory Concentration (M.I.C.)) is reported as > 125 µg/mL, the MIC [2] is reported as > 125 µg/mL and the MIC [3] is reported as 125 µg/mL (≈ 545 µM). For the same compound, the MIC ([4]; read-out: Minimum Inhibitory Concentration (M.I.C.), Staph. aureus A9606 (Pen-Res)) was > 125 µg/mL, the MIC ([5]; Pseudomonas aeruginosa A21213) was > 125 µg/mL and the MIC [6] was > 125 µg/mL. The MIC [7] was > 125 µg/mL, the MIC [8] was > 125 µg/mL and the MIC ([9]; Proteus rettgeri A21203) was > 125 µg/mL. For the same compound, the MIC [10] was > 125 µg/mL, the MIC [11] was > 125 µg/mL and the MIC [12] was > 63 µg/mL. For the same compound, the MIC [13] was > 125 µg/mL, the MIC ([14]; Escherichia coli, A203411; E. coli A20341-1; overnight 37° C.; read-out: Minimum Inhibitory Concentration (M.I.C.)) was > 125 µg/mL and the MIC ([15]; Enterobacter cloacae A9656) was > 125 µg/mL. For the same compound, the MIC ([16]; read-out: Minimum Inhibitory Concentration (M.I.C.), Staph. aureus A15097 (Meth-Res)) was > 125 µg/mL, the MIC [17] was > 125 µg/mL and the MIC [18] was > 125 µg/mL. For the same compound, the MIC [19] was 32 µg/mL (≈ 140 µM) and the MIC [20] was > 125 µg/mL.
For `CCC(N)CC1=C(C(=O)O)N2C(=O)CC2S1` (stereo not drawn) [Example 100, 2-(2'-Aminobutyl)-penem-3-carboxylic Acid], the MIC [1, 21] was 16 µg/mL (≈ 66 µM), the MIC [2] was 8 µg/mL (≈ 33 µM) and the MIC [3] was 0.25 µg/mL (≈ 1.03 µM). For the same compound, the MIC [4, 22] was > 32 µg/mL, the MIC [5, 23] was > 32 µg/mL and the MIC [6] was 16 µg/mL (≈ 66 µM). For the same compound, the MIC [7] was 16 µg/mL (≈ 66 µM), the MIC [8] was 16 µg/mL (≈ 66 µM) and the MIC [9, 24] was 8 µg/mL (≈ 33 µM). It also gave an MIC [10] of 0.25 µg/mL (≈ 1.03 µM), an MIC [11] of 4 µg/mL (≈ 16.5 µM) and an MIC [12] of 8 µg/mL. It also gave an MIC [13] of 8 µg/mL (≈ 33 µM), an MIC [14, 25] of 32 µg/mL (≈ 132 µM) and an MIC [15, 26] of 8 µg/mL (≈ 33 µM). The MIC [16, 27] was > 32 µg/mL, the MIC [17] was > 32 µg/mL and the MIC [18] was > 32 µg/mL. The MIC [19] was 0.25 µg/mL (≈ 1.03 µM) and the MIC [20] was > 32 µg/mL.
`NCCSCC1=C(C(=O)O)N2C(=O)CC2S1` (stereo not drawn) [Example 88, 2-(2-Aminoethylthiomethyl)penem-3-carboxylic Acid] was tested, and the MIC [1, 21] was 16 µg/mL (≈ 61.5 µM), the MIC [2] was 4 µg/mL (≈ 15.4 µM) and the MIC [3] was 0.13 µg/mL (≈ 0.499 µM). The MIC [4, 22] was 16 µg/mL (≈ 61.5 µM), the MIC [5, 23] was > 63 µg/mL and the MIC [6] was 8 µg/mL (≈ 30.7 µM). The MIC [7] was 32 µg/mL (≈ 123 µM), the MIC [8] was 8 µg/mL (≈ 30.7 µM) and the MIC [9, 24] was 8 µg/mL (≈ 30.7 µM). For the same compound, the MIC [10] was 0.13 µg/mL (≈ 0.499 µM), the MIC [11] was 4 µg/mL (≈ 15.4 µM) and the MIC [12] was 0.5 µg/mL. For the same compound, the MIC [13] was 8 µg/mL (≈ 30.7 µM), the MIC [14, 25] was 16 µg/mL (≈ 61.5 µM) and the MIC [15, 26] was 32 µg/mL (≈ 123 µM). For the same compound, the MIC [16, 27] was 16 µg/mL (≈ 61.5 µM), the MIC [17] was 63 µg/mL (≈ 242 µM) and the MIC [18] was > 63 µg/mL. The MIC [19] was 0.13 µg/mL (≈ 0.499 µM) and the MIC [20] was 63 µg/mL (≈ 242 µM).
